Experimental data taken from ChEMBL document CHEMBL4765274, “The development of advanced structural framework as multi-target-directed ligands for the treatment of Alzheimer's disease” (Eur J Med Chem, 2020).
pIC50: −log10 of the molar value. Calls of active or inactive are those of the source. The calls are words filed in the database; no cut-off is given here.

Legend:
HT-22 [1] = assay: Activation of ubiquitin-proteasome system in mouse HT-22 cells expressing pEGFP-N1-APP assessed as increase in APP degradation by measuring reduction in GFP level at 2.5 to 20 uM after 24 hrs by fluorescence microscopic method; type: cell-based; details: filed as activator, dose 2.5-20 µM
Mus musculus [2] = assay: Antialzheimer activity in scopolamine-induced Kunming mouse model of memory impairment assessed as GC bases ratio (QC data) in brain hippocampus at 5 mg/kg , po by illumina sequencing method (reference value: 53.64%); type: functional
Cholinesterase [3] = target: T1, Cholinesterase (Homo sapiens, UniProt P06276); assay: Inhibition of human BChE assessed as residual activity at IC50 concentration relative to control
T1 sequence (P06276 whole entry): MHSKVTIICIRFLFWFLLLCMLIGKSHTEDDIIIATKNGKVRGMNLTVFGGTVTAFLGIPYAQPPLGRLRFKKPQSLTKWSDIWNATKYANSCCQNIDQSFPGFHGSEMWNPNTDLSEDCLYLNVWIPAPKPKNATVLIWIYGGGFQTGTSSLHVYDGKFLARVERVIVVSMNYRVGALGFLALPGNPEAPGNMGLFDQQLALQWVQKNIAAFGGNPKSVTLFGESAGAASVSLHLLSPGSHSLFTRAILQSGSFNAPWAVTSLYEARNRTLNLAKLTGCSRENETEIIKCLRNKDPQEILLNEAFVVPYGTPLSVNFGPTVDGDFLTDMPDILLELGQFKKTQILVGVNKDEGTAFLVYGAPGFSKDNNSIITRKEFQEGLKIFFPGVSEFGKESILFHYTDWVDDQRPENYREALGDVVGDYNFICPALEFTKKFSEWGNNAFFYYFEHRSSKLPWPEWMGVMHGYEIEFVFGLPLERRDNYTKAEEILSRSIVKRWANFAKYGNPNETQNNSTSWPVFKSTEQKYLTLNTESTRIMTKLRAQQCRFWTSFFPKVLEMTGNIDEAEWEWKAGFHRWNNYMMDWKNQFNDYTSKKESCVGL

[4] = Effective permeability of compound at 100 ug/m by PAMPA-BBB assay; type: ADME; details: read-out: Peff
Danio rerio [5] = species: Danio rerio; assay: Antialzheimer activity in Alcl3-induced zebra fish AD model assessed as increase dyskinesia recovery rate at 0.26 ug/ml relative to control; type: functional; details: dose 0.26 µg/ml
[6] = Toxicity in 3 dpf zebra fish assessed as pericardium edema at 1.56 ug/ml; set-up: species or system Danio rerio; details: zebrafish; dose 1.56 µg/ml
[7] = Toxicity in 2 dpf zebra fish assessed as yolk sac absorption delay at 25 ug/ml after 3 days relative to control; set-up: species or system Danio rerio; details: zebrafish, 72 h, at 25 µg/mL, time 3 day
Acetylcholinesterase = Acetylcholinesterase (Homo sapiens, UniProt P22303); assay: Reversible inhibition of human AChE assessed as residual activity at 0.1 times of IC50 concentration after 120 mins relative to control
Acetylcholinesterase, sequence (P22303 whole entry, the tested form may be a part): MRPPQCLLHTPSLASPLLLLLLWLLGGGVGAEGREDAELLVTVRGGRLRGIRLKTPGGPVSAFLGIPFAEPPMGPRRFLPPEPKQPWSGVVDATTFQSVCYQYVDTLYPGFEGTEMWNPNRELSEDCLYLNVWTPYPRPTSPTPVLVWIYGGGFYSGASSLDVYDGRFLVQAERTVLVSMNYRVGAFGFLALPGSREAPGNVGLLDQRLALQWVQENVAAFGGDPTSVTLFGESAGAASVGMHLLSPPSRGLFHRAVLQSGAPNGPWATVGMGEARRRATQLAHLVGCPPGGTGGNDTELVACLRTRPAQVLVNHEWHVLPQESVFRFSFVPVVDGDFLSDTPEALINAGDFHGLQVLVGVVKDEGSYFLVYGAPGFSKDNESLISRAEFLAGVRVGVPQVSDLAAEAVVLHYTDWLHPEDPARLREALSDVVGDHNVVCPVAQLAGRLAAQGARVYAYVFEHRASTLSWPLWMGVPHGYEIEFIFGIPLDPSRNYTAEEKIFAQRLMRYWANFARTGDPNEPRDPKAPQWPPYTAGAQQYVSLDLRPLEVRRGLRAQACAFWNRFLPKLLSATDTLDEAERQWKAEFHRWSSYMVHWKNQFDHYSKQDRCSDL

Danio rerio [8] = species: Danio rerio; assay: Antialzheimer activity in amyloid beta (1 to 40 residues)-induced zebra fish AD model assessed as reduction in vascular injury at 0.78 ug/ml relative to control; type: functional; set-up: scale not given: the % may be the effect or the level left; details: dose 0.78 µg/ml
Cholinesterase [9] = target: Cholinesterase (Equus caballus, UniProt P81908); assay: Inhibition of equine serum BChE by Ellman's method; type: cell-free
Cholinesterase (Equus caballus, UniProt P81908), sequence (P81908 whole entry): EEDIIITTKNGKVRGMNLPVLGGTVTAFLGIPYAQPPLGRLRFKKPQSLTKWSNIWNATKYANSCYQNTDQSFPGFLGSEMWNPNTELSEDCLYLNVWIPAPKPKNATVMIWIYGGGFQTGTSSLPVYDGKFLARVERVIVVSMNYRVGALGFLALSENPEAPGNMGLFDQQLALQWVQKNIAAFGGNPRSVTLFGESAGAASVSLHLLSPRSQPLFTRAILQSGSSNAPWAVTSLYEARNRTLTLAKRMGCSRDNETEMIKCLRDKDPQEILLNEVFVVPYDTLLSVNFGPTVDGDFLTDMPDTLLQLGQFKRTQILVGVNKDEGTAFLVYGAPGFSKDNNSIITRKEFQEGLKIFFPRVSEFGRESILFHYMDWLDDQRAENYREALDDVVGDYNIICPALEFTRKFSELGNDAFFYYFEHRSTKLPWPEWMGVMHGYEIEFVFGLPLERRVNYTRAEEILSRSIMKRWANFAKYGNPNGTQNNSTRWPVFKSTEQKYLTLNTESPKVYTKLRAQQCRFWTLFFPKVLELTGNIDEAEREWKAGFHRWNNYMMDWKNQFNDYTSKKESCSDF

Mus musculus [10] = assay: Antialzheimer activity in scopolamine-induced Kunming mouse model of memory impairment assessed as latency time at 50 mg/kg , po by step-down passive avoidance test (reference value: 125.65 sec); type: functional
[11] = Toxicity in Kunming mouse assessed as abnormal behavior up to 5000 mg/kg, po after 14 days; type: organism-based; details: in vivo, 336 h, time 14 day
HT-22 [12] = assay: Cytotoxicity against mouse HT-22 cells assessed as reduction in cell viability after 24 hrs by MTT assay; type: cell-based; details: HT-22, 24 h
HT-22 [13] = assay: Activation of ubiquitin-proteasome system in mouse HT-22 cells expressing pRK5-GFP-Tau assessed as increase in tau degradation by measuring reduction in GFP level after 24 hrs by fluorescence microscopic method; type: cell-based; details: filed as activator, dose 2.5-20 µM
Mus musculus [14] = assay: Antialzheimer activity in scopolamine-induced Kunming mouse model of memory impairment assessed as latency time at 5 mg/kg , po by step-down passive avoidance test (reference value: 125.65 sec); type: functional
Danio rerio [15] = species: Danio rerio; assay: Antialzheimer activity in amyloid beta (1 to 40 residues)-induced zebra fish AD model assessed as reduction in vascular injury at 0.09 ug/ml relative to control; type: functional; set-up: scale not given: the % may be the effect or the level left; details: dose 0.09 µg/ml
Danio rerio [16] = species: Danio rerio; assay: Antialzheimer activity in Alcl3-induced zebra fish AD model assessed as increase dyskinesia recovery rate; type: functional, organism-based
Mus musculus [17] = assay: Antialzheimer activity in scopolamine-induced Kunming mouse model of memory impairment assessed as total reads in brain hippocampus at 5 mg/kg , po by illumina sequencing method (reference value: 100%); type: functional
[18] = Metal chelating activity assessed as Al3+-compound complex formation in water buffer at pH 7.4 at 37.5 uM by UV-Visible spectra analysis
[19] = Toxicity in 2 dpf zebra fish assessed as short or misshapen jaw at 25 ug/ml after 3 days relative to control; set-up: species or system Danio rerio; details: zebrafish, 72 h, at 25 µg/mL, time 3 day
[20] = Toxicity in 2 dpf zebra fish assessed as dark brown liver at 25 ug/ml after 3 days relative to control; set-up: species or system Danio rerio; details: zebrafish, 72 h, at 25 µg/mL, time 3 day
Mus musculus [21] = assay: Antialzheimer activity in scopolamine-induced Kunming mouse model of memory impairment assessed as Q30 bases ratio (QC data) in brain hippocampus at 5 mg/kg , po by illumina sequencing method (reference value: 96.67%); type: functional
Cholinesterase [22] = target: T1, Cholinesterase; assay: Reversible inhibition of human BChE assessed as residual activity at 0.1 times of IC50 concentration relative to control
HT-22 [23] = assay: Activation of ubiquitin-proteasome system in mouse HT-22 cells expressing YFP-CLI assessed as reduction in GFP level at 10 uM after 24 hrs by fluorescence microscopic method; type: cell-based; details: filed as activator
HT-22 [24] = assay: Activation of ubiquitin-proteasome system in mouse HT-22 cells expressing pEGFP-N1-APP assessed as increase in APP degradation by measuring reduction in GFP level at 2.5 to 20 uM after 24 hrs by Western blot analysis; type: cell-based; details: filed as activator, dose 2.5-20 µM
[25] = Inhibition of Cu2+-induced amyloid beta (1 to 42 residues) (unknown origin) aggregation at 25 uM after 24 hrs by thioflavin-T fluorescence method relative to control
[26] = Disaggregation of Cu2+ induced amyloid beta (unknown origin) aggregation after 48 hrs by TEM analysis
[27] = Toxicity in 2 dpf zebra fish assessed as short or misshapen eye at 25 ug/ml after 3 days relative to control; set-up: species or system Danio rerio; details: zebrafish, 72 h, at 25 µg/mL, time 3 day
[28] = Toxicity in 2 dpf zebra fish assessed as small brain at 25 ug/ml after 3 days relative to control; type: tissue-based, Danio rerio; details: zebrafish, 72 h, at 25 µg/mL, time 3 day
SH-SY5Y = assay: Cytotoxicity against human SH-SY5Y cells assessed as cell viability up to 100 uM after 48 hrs by MTT assay relative to control; type: cell-based
[29] = Metal chelating activity assessed as Zn2+-compound complex formation in water at 37.5 uM by UV-Visible spectra analysis
[30] = Metal chelating activity assessed as Fe2+-compound complex formation in methanol at 37.5 uM by UV-Visible spectra analysis
[31] = Toxicity in 3 dpf zebra fish assessed as mortality at 0.78 ug/ml (reference value: 0%); set-up: species or system Danio rerio; details: zebrafish, at 0.78 µg/mL, read-out: Activity
[32] = Metal chelating activity assessed as Cu2+-compound complex formation in water at 37.5 uM by UV-Visible spectra analysis
[33] = Metal chelating activity assessed as Fe2+-compound complex formation in water at 37.5 uM by UV-Visible spectra analysis
[34] = Toxicity in 2 dpf zebra fish assessed as misshapen brain at 25 ug/ml after 3 days relative to control; type: tissue-based, Danio rerio; details: zebrafish, 72 h, at 25 µg/mL, time 3 day
[35] = Antioxidant activity assessed as trolox equivalent of AAPH radical scavenging activity measured every min for 4 hrs by ORAC-FL assay relative to trolox; type: functional
Cholinesterase [36] = target: T1, Cholinesterase; assay: Reversible inhibition of human BChE assessed as residual activity at IC50 concentration relative to control
PC-12 = assay: Neuroprotective activity against H2O2-induced cytotoxicity in rat PC-12 cells assessed as decrease in LDH activity at 1 to 10 uM preincubated for 2 hrs followed by H2O2 addition and measured after 24 hrs by LDH assay; type: functional, cell-based; details: dose 1-10 µM, time 26.0 hrs
[37] = Toxicity in 3 dpf zebra fish assessed as mortality at 12.5 ug/ml (reference value: 0%); set-up: species or system Danio rerio; details: zebrafish, at 12.5 µg/mL, read-out: Activity

CCN(CCCCOc1ccc(-c2cc(=O)c3c(O)cc(OCCCCN(CC)Cc4ccccc4)cc3o2)cc1)Cc1ccccc1
Activity (HT-22 [1]): Active
Activity (Mus musculus [2]): 59.05%
Activity (Cholinesterase [3]): 49.7%
Papp at 100 ug/m [4]: 1.68 ×10⁻⁶ cm/s
Activity (Danio rerio [5]): 80%
Activity [6]: Toxic
Activity [7]: 100%
Activity (Acetylcholinesterase): 86.6%
Activity (Danio rerio [8]): 0%
pIC50 (Cholinesterase [9]): 5.02
Time (Mus musculus [10]): 227.34 s
Activity [11]: Non-Toxic
pIC50 (HT-22 [12]): 4.40
Activity (HT-22 [13]): Dose-dependent effect
Time (Mus musculus [14]): 261.82 s
Activity (Danio rerio [15]): 9%
Activity (Danio rerio [16]): Dose-dependent effect
Activity (Mus musculus [17]): 100%
Activity [18]: inactive
Activity [19]: 56.7%
Activity [20]: 100%
Activity (Mus musculus [21]): 96.56%
Activity (Cholinesterase [22]): 50%
Activity (HT-22 [23]): Active
Activity (HT-22 [24]): Active
inhibition [25]: 81.3%
Activity [26]: Active
Activity [27]: 433%
Activity [28]: 50%
Activity (SH-SY5Y): Non-Toxic
Activity [29]: inactive
Activity [30]: Active
mortality at 0.78 ug/ml [31]: 0%
Activity [32]: inactive
Activity [33]: inactive
Activity [34]: 76.7%
fold change (FC) [35]: 1.2
Activity (Cholinesterase [36]): 42.3%
Activity (PC-12): Active
mortality at 12.5 ug/ml [37]: 100%
